≈ marks a conversion by molar mass, not a printed value. Structures can show the parent of a compound that is named as a salt. Where two headings read alike, the source gives them in different places.

Holding throughout (experiment): Antibacterial activity, microbroth dilution method (MIC)
On the technique in general: Broth dilution looks for growth in wells or tubes with falling amounts of substance.

The subject of test [1] is control Gram-negative E. coli 25922 strain. Format: cell-based, Escherichia coli. The following applies: Escherichia coli. In short, it runs like this:
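Potency is reported as minimum inhibitory concentration in μg/mL, determined by broth microdilution as the lowest level of compound that stops growth visible to the eye.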

Test [2] deals with Gram-positive Staphylococcus aureus (S. aureus) 29213. The class given is cell-based. The settings on record: Staphylococcus aureus, Gram-positive S. aureus 29213. In short, it runs like this:
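Broth microdilution against S. aureus 29213, E. coli 25922 and hypersensitive E. coli BAS849. MIC in μg/mL is the lowest drug concentration preventing macroscopically visible growth under test conditions.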

Test [3] deals with super sensitive Gram-negative Escherichia coli (E. coli) BAS849. The class given is cell-based. The settings on record: Escherichia coli, read-out: MIC, E. coli BAS849. The method, boiled down:
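In a microbroth dilution test, the minimum inhibitory concentration was defined as the lowest compound level preventing growth seen by eye, and was given in μg/mL.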

Setting [4] is: super sensitive Gram-negative E. coli BAS849, microbroth dilution.

`Cl.O=C(O)c1c(O)c2c([nH]c1=O)-c1ccc(N3CCC4(CCNC4)C3)cc1CCC2` (stereo not drawn) [Cpd 122, 4-hydroxy-2-oxo-9-(2,7-diazaspiro[4.4]nonan-2-yl)-2,5,6,7-tetrahydro-1H-benzo[6,7]cyclohepta[1,2-b]pyridine-3-carboxylic acid hydrochloride]: the MIC in test [1], in test [2] and in test [3] (setting [4]) was 12.5 to 150 µg/mL in each case.

`CCNCCc1cc2cc3c(cc2n1C)C=CCc1c-3[nH]c(=O)c(C(=O)O)c1O.O=C(O)C(F)(F)F` [Cpd 164, 10-(2-(ethylamino)ethyl)-4-hydroxy-9-methyl-2-oxo-1,2,5,9-tetrahydropyrido[3′,2′:6,7]cyclohepta[1,2-f]indole-3-carboxylic acid trifluoroacetate]: the MIC in test [1] was 1 to 3.5 µg/mL; in test [2], 12.5 to 150 µg/mL; in test [3], under 1 µg/mL.

On to `CNCc1cc2cc3c(cc2n1C)NCCc1c-3[nH]c(=O)c(C(=O)O)c1O.Cl` [Cpd 99, 4-hydroxy-9-methyl-10-((methylamino)methyl)-2-oxo-1,2,5,6,7,9-hexahydropyrido[2′,3′:4,5]azepino[3,2-f]indole-3-carboxylic acid hydrochloride], for which the figures for the MIC in test [1], in test [2] and in test [3] (setting [4]) were 12.5 to 150 µg/mL, 12.5 to 150 µg/mL and 1 to 3.5 µg/mL, respectively.

On to `CC1CCc2cc(N3C[C@@H]4[C@@H](N)[C@@H]4C3)ccc2-c2[nH]c(=O)c(C(=O)O)c(O)c21` (stereo partly drawn) [Cpd 13, 9-((cis,cis)-6-amino-3-azabicyclo[3.1.0]hexan-3-yl)-4-hydroxy-5-methyl-2-oxo-2,5,6,7-tetrahydro-1H-benzo[6,7]cyclohepta[1,2-b]pyridine-3-carboxylic acid hydrochloride], for which the MIC is 1 to 3.5 µg/mL in test [1], 3.5 to 12.5 µg/mL in test [2] and under 1 µg/mL in test [3] (setting [4]).

As to `CCCCCCCCCNCc1cc2cc3c(cc2n1C)CCCc1c-3[nH]c(=O)c(C(=O)O)c1O.Cl` [Cpd 141, 4-hydroxy-9-methyl-10-((nonylamino)methyl)-2-oxo-1,2,5,6,7,9-hexahydropyrido[3′,2′:6,7]cyclohepta[1,2-f]indole-3-carboxylic acid hydrochloride], the MIC in test [1] fell in the range of 12.5 to 150 µg/mL; in test [2] it was 3.5 to 12.5 µg/mL; in test [3] (setting [4]), 1 to 3.5 µg/mL.

As for `CCN(CC)Cc1cc2cc3c(cc2n1C)CCCc1c-3[nH]c(=O)c(C(=O)O)c1O.Cl` [Cpd 43, 10-((diethylamino)methyl)-4-hydroxy-9-methyl-2-oxo-1,2,5,6,7,9-hexahydropyrido[3′,2′:6,7]cyclohepta[1,2-f]indole-3-carboxylic acid hydrochloride], the MIC was 1 to 3.5 µg/mL in test [1], 3.5 to 12.5 µg/mL in test [2] and under 1 µg/mL in test [3] (setting [4]).

As for `Cn1ccc2cc3c(cc21)OCCc1c-3[nH]c(=O)c(C(=O)O)c1O` [Cpd 87, 4-hydroxy-9-methyl-2-oxo-2,5,6,9-tetrahydro-1H-pyrido[2′,3′:4,5]oxepino[3,2-f]indole-3-carboxylic acid], the MIC was 3.5 to 12.5 µg/mL (≈ 10.7 to 38.3 µM) in test [1], 12.5 to 150 µg/mL (≈ 38.3 to 460 µM) in test [2] and under 1 µg/mL in test [3] (setting [4]).

With `CC1Oc2ccccc2-c2[nH]c(=O)c(C(=O)O)cc21` (stereo not drawn) [Cpd 73, 5-methyl-2-oxo-2,5-dihydro-1H-chromeno[4,3-b]pyridine-3-carboxylic acid], the MIC in test [1], in test [2] and in test [3] (setting [4]) was 12.5 to 150 µg/mL (≈ 48.6 to 583 µM) each time.

As for `CC1COc2cc(N3C[C@@H]4[C@H](C3)[C@H]4N(Cc3ccccc3)Cc3ccccc3)ccc2-c2[nH]c(=O)c(C(=O)O)c(O)c21` (stereo partly drawn) [Cpd 85, 9-((cis,cis)-6-(dibenzylamino)-3-azabicyclo[3.1.0]hexan-3-yl)-4-hydroxy-5-methyl-2-oxo-1,2,5,6-tetrahydrobenzo[2,3]oxepino[4,5-b]pyridine-3-carboxylic acid hydrochloride], the MIC in test [1], in test [2] and in test [3] (setting [4]) was 12.5 to 150 µg/mL throughout.

On to `COCC(C)NCc1cc2cc3c(cc2n1C)OCCc1c-3[nH]c(=O)c(C(=O)O)c1O.Cl` (stereo not drawn) [Cpd 184, 4-hydroxy-10-(((1-methoxypropan-2-yl)amino)methyl)-9-methyl-2-oxo-2,5,6,9-tetrahydro-1H-pyrido[2′,3′:4,5]oxepino[3,2-f]indole-3-carboxylic acid hydrochloride], for which the minimal inhibitory concentration (MIC) in test [1] was 3.5 to 12.5 µg/mL; in test [2], 12.5 to 150 µg/mL; in test [3] (setting [4]), under 1 µg/mL.

In the case of `CC1CCc2c([nH]c(=O)c(C(=O)O)c2O)-c2cc3cc(CNC4(C)CC4)n(C)c3cc21.Cl` (stereo not drawn) [Cpd 66, 4-hydroxy-7,9-dimethyl-10-(((1-methylcyclopropyl)amino)methyl)-2-oxo-1,2,5,6,7,9-hexahydropyrido[3′,2′:6,7]cyclohepta[1,2-f]indole-3-carboxylic acid hydrochloride], the MIC in test [1] was in the range of 12.5 to 150 µg/mL; in test [2], 3.5 to 12.5 µg/mL; in test [3] (setting [4]) it was 1 to 3.5 µg/mL.

Turning to `CNCc1cc2cc3c(cc2n1C)CCc1c-3[nH]c(=O)c(C(=O)O)c1O.Cl` [Cpd 20, 4-hydroxy-8-methyl-9-((methylamino)methyl)-2-oxo-2,5,6,8-tetrahydro-1H-indolo[6,5-h]quinoline-3-carboxylic acid hydrochloride], the MIC in test [1] was 3.5 to 12.5 µg/mL; in test [2], 12.5 to 150 µg/mL; in test [3] (setting [4]), 1 to 3.5 µg/mL.

For the compound `CN(C)CCNCc1cc2cc3c(cc2n1C)CCCc1c-3[nH]c(=O)c(C(=O)O)c1O.Cl.Cl` [Cpd 142, 10-(((2-(dimethylamino)ethyl)amino)methyl)-4-hydroxy-9-methyl-2-oxo-1,2,5,6,7,9-hexahydropyrido[3′,2′:6,7]cyclohepta[1,2-f]indole-3-carboxylic acid dihydrochloride], the MIC was 3.5 to 12.5 µg/mL in test [1], 12.5 to 150 µg/mL in test [2] and under 1 µg/mL in test [3] (setting [4]).

Regarding `CCNCc1cc2cc3c(cc2n1C)OCCc1c-3[nH]c(=O)c(C(=O)O)c1O.Cl` [Cpd 89, 10-((ethylamino)methyl)-4-hydroxy-9-methyl-2-oxo-2,5,6,9-tetrahydro-1H-pyrido[2′,3′:4,5]oxepino[3,2-f]indole-3-carboxylic acid hydrochloride], the MIC is under 1 µg/mL in test [1], 12.5 to 150 µg/mL in test [2] and under 1 µg/mL in test [3] (setting [4]).

Take `CN1CCCN(Cc2cc3cc4c(cc3n2C)CCCc2c-4[nH]c(=O)c(C(=O)O)c2O)CC1.Cl.Cl` [Cpd 156, 4-hydroxy-9-methyl-10-((4-methyl-1,4-diazepan-1-yl)methyl)-2-oxo-1,2,5,6,7,9-hexahydropyrido[3′,2′:6,7]cyclohepta[1,2-f]indole-3-carboxylic acid dihydrochloride]: the MIC in test [1] was 3.5 to 12.5 µg/mL; in test [2], 12.5 to 150 µg/mL; in test [3] (setting [4]), under 1 µg/mL.

Consider `CN(C)c1ccc2c(c1)CCCc1c-2[nH]c(=O)c(C(=O)O)c1O` [Cpd 3, 9-(dimethylamino)-4-hydroxy-2-oxo-2,5,6,7-tetrahydro-1H-benzo[6,7]cyclohepta[1,2-b]pyridine-3-carboxylic acid], for which the MIC in test [1] was 3.5 to 12.5 µg/mL (≈ 11.1 to 39.8 µM); in test [2], 3.5 to 12.5 µg/mL (≈ 11.1 to 39.8 µM); in test [3] (setting [4]), under 1 µg/mL.

As to `Cl.Cn1c(CN2CCCC2)cc2cc3c(cc21)CCCc1c-3[nH]c(=O)c(C(=O)O)c1O` [Cpd 50, 4-hydroxy-9-methyl-2-oxo-10-(pyrrolidin-1-ylmethyl)-1,2,5,6,7,9-hexahydropyrido[3′,2′:6,7]cyclohepta[1,2-f]indole-3-carboxylic acid hydrochloride], the MIC was under 1 µg/mL in test [1], 3.5 to 12.5 µg/mL in test [2] and under 1 µg/mL in test [3] (setting [4]).

What is called MIC is the least concentration at which growth counts as inhibited.

The values are drawn from patent US20150038438A1, “ANTIBACTERIAL COMPOUNDS AND METHODS FOR USE” (PTC THERAPEUTICS, INC., priority 2011, published 2015).
